# Results published in patent publication US20160317503A1, “ZOLMITRIPTAN POWDERS FOR PULMONARY DELIVERY” (Civitas Therapeutics, Inc., priority 2015, published 2016).
# Legend:
# [1] = s.c.; cited from earlier work
# [2] = DSC / modulated DSC thermal events (Tg, Low T1, Low T2, recrystallization, melt); type: physicochemical
# Method: For comparative purposes, a 100% spray-dried zolmitriptan powder was prepared and analyzed via XRPD and DSC to allow for a comparison to the formulations from Example 2 that were placed on stability and to facilitate an interpretation of the resultant thermal data. Initially, a lot of amorphous 100% zolmitriptan was produced via a Buchi 290 Spray-Drying System (spray drying parameters: solids concentration=2 g/L, inlet temperature=90° C., outlet temperature=45° C., drying gas flowrate=20 kg/hr, atomization gas flowrate=10 g/min, aqueous flowrate=4 ml/Min, organic phase flowrate=6 ml/min, spray dryer pressure=−50 mbar) and analyzed via modulated DSC (TA Instruments DSC Q2000 Tzero System, MDSC Parameters: hermetically sealed double lid pan configuration, equilibrate at 0° C. for 5 minutes, ramp up to maximum of 160° C. at 2.0° C./min, modulate+/−1.00° C. every 60 seconds) to determine its glass transition temperature.
compound,measurement,setting,value
CNS(=O)(=O)Cc1ccc2[nH]cc(CCN(C)C)c2c1 [sumatriptan],reported half-lives,[1],~2 h
CN(C)CCc1c[nH]c2ccc(C[C@H]3COC(=O)N3)cc12 [Zolmitriptan],reported half-lives,[1],~2 h
"CN(C)CCc1c[nH]c2ccc(C[C@H]3COC(=O)N3)cc12 [Raw material, Zolmitriptan]",Tm (° C.),"[2]; 100% zolmitriptan study, t = 0",136.0 °C
same,ΔH,"[2]; 100% zolmitriptan study, t = 0",135.3 J/g
same,Tm (° C.),"[2]; 100% zolmitriptan study, t = 0, listed as Zolmitriptan raw material",approximately 136 °C
"CN(C)CCc1c[nH]c2ccc(C[C@H]3COC(=O)N3)cc12 [pure amorphous zolmitriptan, Zolmitriptan]",glass transition temperature (Tg),"[2]; modulated DSC, amorphous 100% zolmitriptan, Buchi 290",approximately 33 °C
